Data taken from ChEMBL document CHEMBL5584347, “Development of Nitric Oxide Releasing Oxoisoaporphines with Antidepressant Activities by Simultaneously Regulating MAO-A and SERT” (J Med Chem, 2024).
Calls of active or inactive are those of the source. The calls are words filed in the database; no cut-off is given here.

Columns and labels:
[1] = Toxicity in C57 mouse assessed as effect on kidney morphology at 5 to 10 mg/kg administered continuously for 2 weeks by H and E staining based analysis; type: organism-based; details: in vivo, 336 h, dose 5-10 mg/kg
[2] = Toxicity in C57 mouse assessed as effect on spleen morphology at 5 to 10 mg/kg administered continuously for 2 weeks by H and E staining based analysis; type: organism-based; details: in vivo, 336 h, dose 5-10 mg/kg
[3] = Toxicity in C57 mouse assessed as effect on liver structure at 5 to 10 mg/kg administered continuously for 2 weeks by H and E staining based analysis; type: organism-based; details: in vivo, 336 h, dose 5-10 mg/kg
Danio rerio [4] = experiment: Antidepressant activity in reserpine-induced depressive zebrafish model assessed as increase in total distance traveled at 0.5 to 1 uM preadministered with reserpine for 40 mins followed by compound administration and measured after 7 days by novel tank test; type: functional, organism-based; details: dose 0.5-1 µM, time 7.0 day
Mus musculus [5] = experiment: Antidepressant activity in chronic unpredictable mild stress induced depressive C57 mouse model assessed as appearance of well arranged neuronal cells in hippocampus at 5 to 10 mg/kg administered continuously for 2 weeks post 5 weeks of chronic unpredictable mild stress by H and E staining based analysis; type: functional, organism-based; details: dose 5-10 mg/kg
Mus musculus [6] = experiment: Antidepressant activity in chronic unpredictable mild stress induced depressive C57 mouse model assessed as increase in nitric oxide content in brain at 5 to 10 mg/kg administered continuously for 2 weeks post 5 weeks of chronic unpredictable mild stress by absorbance based analysis; type: functional, organism-based; details: dose 5-10 mg/kg
[7] = Toxicity in C57 mouse assessed as necrosis in kidney at 5 to 10 mg/kg administered continuously for 2 weeks by H and E staining based analysis; type: organism-based; details: in vivo, 336 h, dose 5-10 mg/kg
Mus musculus [8] = experiment: Antidepressant activity in chronic unpredictable mild stress induced depressive C57 mouse model assessed as decrease in SERT expression in brain at 5 to 10 mg/kg administered continuously for 2 weeks post 5 weeks of chronic unpredictable mild stress by Western blot analysis; type: functional, organism-based; details: dose 5-10 mg/kg
Mus musculus [9] = experiment: Antidepressant activity in chronic unpredictable mild stress induced depressive C57 mouse model assessed as reduction in MAO-A activity in brain at 5 to 10 mg/kg administered continuously for 2 weeks post 5 weeks of chronic unpredictable mild stress by colorimetric analysis; type: functional, organism-based; details: dose 5-10 mg/kg
PC-12 [10] = experiment: Neuroprotective activity against corticosterone-induced cell injury in rat PC-12 cells assessed as increase in cell viability at 0.01 to 1 uM incubated for 24 hrs by CCK8 assay; type: functional, cell-based; details: dose 0.01-1 µM
Danio rerio [11] = experiment: Antidepressant activity in reserpine-induced depressive zebrafish model assessed as increase in total distance traveled at 0.5 to 1 uM preadministered with reserpine for 40 mins followed by compound administration and measured after 7 days by open field test; type: functional, organism-based; details: dose 0.5-1 µM, time 7.0 day
[12] = Toxicity in C57 mouse assessed as effect on liver size at 5 to 10 mg/kg administered continuously for 2 weeks by H and E staining based analysis; type: organism-based; details: in vivo, 336 h, dose 5-10 mg/kg
Mus musculus [13] = experiment: Antidepressant activity in chronic unpredictable mild stress induced depressive C57 mouse model assessed as reduction in resting time at 5 to 10 mg/kg administered continuously for 2 weeks post 5 weeks of chronic unpredictable mild stress by forced swimming test; type: functional, organism-based; details: dose 5-10 mg/kg
[14] = Toxicity in C57 mouse assessed as necrosis in lungs at 5 to 10 mg/kg administered continuously for 2 weeks by H and E staining based analysis; type: organism-based; details: in vivo, 336 h, dose 5-10 mg/kg
PC-12 [15] = experiment: Neuroprotective activity against corticosterone-induced cell injury in rat PC-12 cells assessed as increase in cell viability at 0.1 to 1 uM incubated for 24 hrs by CCK8 assay; type: functional, cell-based; details: dose 0.1-1 µM
Mus musculus [16] = experiment: Antidepressant activity in reserpine induced depressive mouse model assessed as 5-HT level in brain at 5 mg/kg preadministered with reserpine for 3 days followed by compound addition from day 4 to 10 by LC-MS analysis (reference value: 186.46 ng/ml); type: functional; details: time 7 day
Danio rerio [17] = experiment: Antidepressant activity in reserpine-induced depressive zebrafish model assessed as increase in speed of movement at 0.5 to 1 uM preadministered with reserpine for 40 mins followed by compound administration and measured after 7 days by novel tank test; type: functional, organism-based; details: dose 0.5-1 µM, time 7.0 day
Danio rerio [18] = experiment: Antidepressant activity in reserpine-induced depressive zebrafish model assessed as increase in time spend in upper part at 0.5 to 1 uM preadministered with reserpine for 40 mins followed by compound administration and measured after 7 days by novel tank test; type: functional, organism-based; details: dose 0.5-1 µM, time 7.0 day
[19] = Toxicity in C57 mouse assessed as effect on kidney size at 5 to 10 mg/kg administered continuously for 2 weeks by H and E staining based analysis; type: organism-based; details: in vivo, 336 h, dose 5-10 mg/kg
[20] = Toxicity in zebrafish embryo assessed as morphological changes at 0.1 to 10 uM administered with compound starting from 6 hours fertilization and measured at 48 to 120 hours post fertilization; parameters: species or system Danio rerio; details: in vivo, dose lower 0.1 µM, time lower 42 hrs, dose upper 10 µM, time upper 114 hrs
Mus musculus [21] = experiment: Antidepressant activity in chronic unpredictable mild stress induced depressive C57 mouse model assessed as increase in body weight at 5 to 10 mg/kg administered continuously for 2 weeks post 5 weeks of chronic unpredictable mild stress; type: functional, organism-based; details: dose 5-10 mg/kg
[22] = Toxicity in C57 mouse assessed as effect on kidney structure at 5 to 10 mg/kg administered continuously for 2 weeks by H and E staining based analysis; type: organism-based; details: in vivo, 336 h, dose 5-10 mg/kg
[23] = Toxicity in C57 mouse assessed as effect on kidney pathology at 5 to 10 mg/kg administered continuously for 2 weeks by H and E staining based analysis; type: organism-based; details: in vivo, 336 h, dose 5-10 mg/kg
PC-12 [24] = experiment: Neuroprotective activity against corticosterone-induced cell injury in rat PC-12 cells assessed as increase in nitric oxide content at 0.2 uM by absorbance based assay; type: functional
[25] = Toxicity in C57 mouse assessed as effect on heart size at 5 to 10 mg/kg administered continuously for 2 weeks by H and E staining based analysis; type: organism-based; details: in vivo, 336 h, dose 5-10 mg/kg
Mus musculus [26] = experiment: Antidepressant activity in chronic unpredictable mild stress induced depressive C57 mouse model assessed as reduction in resting time at 5 to 10 mg/kg administered continuously for 2 weeks post 5 weeks of chronic unpredictable mild stress by tail suspension test; type: functional, organism-based; details: dose 5-10 mg/kg
[27] = Toxicity in C57 mouse assessed as effect on heart pathology at 5 to 10 mg/kg administered continuously for 2 weeks by H and E staining based analysis; type: organism-based; details: in vivo, 336 h, dose 5-10 mg/kg
[28] = Toxicity in C57 mouse assessed as effect on lung pathology at 5 to 10 mg/kg administered continuously for 2 weeks by H and E staining based analysis; type: organism-based; details: in vivo, 336 h, dose 5-10 mg/kg
[29] = Toxicity in C57 mouse assessed as necrosis in heart at 5 to 10 mg/kg administered continuously for 2 weeks by H and E staining based analysis; type: organism-based; details: in vivo, 336 h, dose 5-10 mg/kg
[30] = Toxicity in C57 mouse assessed as effect on spleen size at 5 to 10 mg/kg administered continuously for 2 weeks by H and E staining based analysis; type: organism-based; details: in vivo, 336 h, dose 5-10 mg/kg
[31] = Toxicity in C57 mouse assessed as necrosis in liver at 5 to 10 mg/kg administered continuously for 2 weeks by H and E staining based analysis; type: organism-based; details: in vivo, 336 h, dose 5-10 mg/kg
[32] = Toxicity in C57 mouse assessed as effect on liver morphology at 5 to 10 mg/kg administered continuously for 2 weeks by H and E staining based analysis; type: organism-based; details: in vivo, 336 h, dose 5-10 mg/kg
Mus musculus [33] = experiment: Antidepressant activity in chronic unpredictable mild stress induced depressive C57 mouse model assessed as reduction in fecal count at 5 to 10 mg/kg administered continuously for 2 weeks post 5 weeks of chronic unpredictable mild stress; type: functional, organism-based; details: dose 5-10 mg/kg
[34] = Toxicity in C57 mouse assessed as effect on lung structure at 5 to 10 mg/kg administered continuously for 2 weeks by H and E staining based analysis; type: organism-based; details: in vivo, 336 h, dose 5-10 mg/kg

Compound: O=C1c2ccccc2-c2nccc3cc(OCCCO[N+](=O)[O-])cc1c23
- Activity [1]: Non-Toxic
- Activity [2]: Non-Toxic
- Activity [3]: Non-Toxic
- Activity (Danio rerio [4]): Active
- Activity (Mus musculus [5]): Active
- Activity (Mus musculus [6]): Active
- Activity [7]: Non-Toxic
- Activity (Mus musculus [8]): Active
- Activity (Mus musculus [9]): Active
- Activity (PC-12 [10]): Active
- Activity (Danio rerio [11]): Active
- Activity [12]: Non-Toxic
- Activity (Mus musculus [13]): Active
- Activity [14]: Non-Toxic
- Activity (PC-12 [15]): Active
- Activity (Mus musculus [16]): 508.39 ng/mL
- Activity (Danio rerio [17]): Active
- Activity (Danio rerio [18]): Active
- Activity [19]: Non-Toxic
- Activity [20]: Non-Toxic
- Activity (Mus musculus [21]): Active
- Activity [22]: Non-Toxic
- Activity [23]: Non-Toxic
- Activity (PC-12 [24]): Active
- Activity [25]: Non-Toxic
- Activity (Mus musculus [26]): Active
- Activity [27]: Non-Toxic
- Activity [28]: Non-Toxic
- Activity [29]: Non-Toxic
- Activity [30]: Non-Toxic
- Activity [31]: Non-Toxic
- Activity [32]: Non-Toxic
- Activity (Mus musculus [33]): Active
- Activity [34]: Non-Toxic
